Conditions: Liquid, Vibrating tube method

CCCCCCCC(=O)OCC(COC(=O)CCCCCCC)(COC(=O)CCCCCCC)COC(=O)CCCCCCC [pentaerythritol tetraoctanoate]
Conditions | mass density [kg/m3]
283.15 K, 29618 kPa | 986.1
283.15 K, 29659 kPa | 986
283.15 K, 29698 kPa | 986.2
283.15 K, 29736 kPa | 986.1
283.15 K, 29782 kPa | 986.2
283.15 K, 29821 kPa | 986.2
283.15 K, 29859 kPa | 986.3
283.15 K, 29906 kPa | 986.3
283.15 K, 29946 kPa | 986.3
283.15 K, 29992 kPa | 986.4
283.15 K, 30032 kPa | 986.4
283.15 K, 30071 kPa | 986.3
283.15 K, 30118 kPa | 986.4
283.15 K, 30158 kPa | 986.4
283.15 K, 30201 kPa | 986.4
283.15 K, 30242 kPa | 986.5
283.15 K, 30289 kPa | 986.4
283.15 K, 30330 kPa | 986.5
283.15 K, 30370 kPa | 986.4
283.15 K, 30418 kPa | 986.5
283.15 K, 30459 kPa | 986.5
283.15 K, 30500 kPa | 986.6
283.15 K, 30549 kPa | 986.6
283.15 K, 30590 kPa | 986.6
283.15 K, 30631 kPa | 986.6
283.15 K, 30673 kPa | 986.6
283.15 K, 30724 kPa | 986.6
283.15 K, 30766 kPa | 986.7
283.15 K, 30808 kPa | 986.8
283.15 K, 30850 kPa | 986.6
283.15 K, 30900 kPa | 986.7
283.15 K, 30942 kPa | 986.8
283.15 K, 30985 kPa | 986.9
283.15 K, 31036 kPa | 986.8
283.15 K, 31079 kPa | 986.8
283.15 K, 31123 kPa | 986.8
283.15 K, 31174 kPa | 986.8
283.15 K, 31217 kPa | 986.9
283.15 K, 31260 kPa | 986.9
283.15 K, 31312 kPa | 987
283.15 K, 31356 kPa | 987.1
283.15 K, 31399 kPa | 987
283.15 K, 31451 kPa | 987.1
283.15 K, 31495 kPa | 987.1
283.15 K, 31539 kPa | 987
283.15 K, 31584 kPa | 987
283.15 K, 31637 kPa | 987.1
283.15 K, 31682 kPa | 987.2
283.15 K, 31727 kPa | 987.1
283.15 K, 31781 kPa | 987.2
283.15 K, 31826 kPa | 987.2
283.15 K, 31872 kPa | 987.1
283.15 K, 31928 kPa | 987.2
283.15 K, 31976 kPa | 987.3
283.15 K, 32024 kPa | 987.3
283.15 K, 32078 kPa | 987.3
283.15 K, 32117 kPa | 987.3
283.15 K, 32155 kPa | 987.4
283.15 K, 32186 kPa | 987.4
283.15 K, 32232 kPa | 987.5
283.15 K, 32279 kPa | 987.3
283.15 K, 32317 kPa | 987.5
283.15 K, 32364 kPa | 987.6
283.15 K, 32402 kPa | 987.5
283.15 K, 32442 kPa | 987.6
283.15 K, 32488 kPa | 987.5
283.15 K, 32528 kPa | 987.5
283.15 K, 32567 kPa | 987.6
283.15 K, 32614 kPa | 987.6
283.15 K, 32653 kPa | 987.6
283.15 K, 32700 kPa | 987.7
283.15 K, 32740 kPa | 987.6
283.15 K, 32779 kPa | 987.7
283.15 K, 32819 kPa | 987.7
283.15 K, 32868 kPa | 987.8
283.15 K, 32908 kPa | 987.7
283.15 K, 32947 kPa | 987.7
283.15 K, 32996 kPa | 987.9
283.15 K, 33037 kPa | 987.8
283.15 K, 33127 kPa | 987.8
283.15 K, 33168 kPa | 987.9
283.15 K, 33209 kPa | 987.9
283.15 K, 33260 kPa | 987.8
283.15 K, 33301 kPa | 987.9
283.15 K, 33344 kPa | 988
283.15 K, 33396 kPa | 988
283.15 K, 33439 kPa | 988
283.15 K, 33492 kPa | 988.1
283.15 K, 33538 kPa | 988
283.15 K, 33585 kPa | 988.1
283.15 K, 33636 kPa | 988.2
283.15 K, 33684 kPa | 988.1
283.15 K, 33728 kPa | 988.1
283.15 K, 33754 kPa | 988.1
283.15 K, 33776 kPa | 988.2
283.15 K, 33797 kPa | 988.2
283.15 K, 33823 kPa | 988.2
283.15 K, 33845 kPa | 988.1
283.15 K, 33867 kPa | 988.2
283.15 K, 33889 kPa | 988.2
283.15 K, 33915 kPa | 988.4
283.15 K, 33937 kPa | 988.3
283.15 K, 33959 kPa | 988.3
283.15 K, 33986 kPa | 988.2
283.15 K, 34008 kPa | 988.3
283.15 K, 34126 kPa | 988.4
283.15 K, 34154 kPa | 988.4
283.15 K, 34177 kPa | 988.3
283.15 K, 34205 kPa | 988.4
283.15 K, 34229 kPa | 988.5
283.15 K, 34255 kPa | 988.4
283.15 K, 34282 kPa | 988.4
283.15 K, 34314 kPa | 988.4
283.15 K, 34342 kPa | 988.4
283.15 K, 34371 kPa | 988.6
283.15 K, 34402 kPa | 988.5
283.15 K, 34407 kPa | 988.5
283.15 K, 34408 kPa | 988.5
283.15 K, 34409 kPa | 988.5
283.15 K, 34410 kPa | 988.5
283.16 K, 5633.2 kPa | 973.4
283.16 K, 22751 kPa | 982.8
283.16 K, 22773 kPa | 982.7
283.16 K, 22795 kPa | 982.6
283.16 K, 33086 kPa | 987.8
283.16 K, 33707 kPa | 988.2
283.16 K, 34030 kPa | 988.3
283.16 K, 34053 kPa | 988.3
283.16 K, 34080 kPa | 988.4
283.16 K, 34103 kPa | 988.3
303.14 K, 3768.3 kPa | 957.8
303.14 K, 3783 kPa | 957.7
303.14 K, 3800.7 kPa | 957.8
303.14 K, 3818.7 kPa | 957.7
303.14 K, 3833.9 kPa | 957.8
303.14 K, 3852.1 kPa | 957.7
303.14 K, 3867.4 kPa | 957.7
303.14 K, 3885.9 kPa | 957.9
303.14 K, 3920.2 kPa | 957.8
303.14 K, 3936.3 kPa | 957.8
303.14 K, 3956 kPa | 957.8
303.14 K, 3973 kPa | 957.8
303.14 K, 3988.9 kPa | 958
303.14 K, 4008.8 kPa | 957.9
303.14 K, 4024.9 kPa | 957.8
303.14 K, 4044.7 kPa | 957.9
303.14 K, 4060.9 kPa | 958
303.14 K, 4081.2 kPa | 957.9

From the NIST ThermoML archive (doi:10.1021/je060271a)
